# In patent US12311014B1, “Composition and use thereof for the treatment of equine gastric ulcer syndrome” (priority 2024, dated 2025):
# Key:
# mammalian cells = conditions: cell culture studies; cited from earlier work
# [1] = Lactoperoxidase ABTS activity (UV-vis); assay type: biochemical; conditions: 1000 units = amount of enzyme that oxidises 1 mmol of ABTS in 5 minutes at pH 6.0 and 35° C.
# Description: Lactoperoxidase was isolated from bovine milk. The lactoperoxidase activity (U/mg) was greater than 1000 units ABTS activity (determined using UV-vis). 1000 units ABTS activity (U): amount of enzyme that oxidises 1 mmol of ABTS in 5 minutes at pH 6.0 and 35° C. ABTS: 2,2′-azinobis-(3-ethyl benzthiazoline-6-sulphonic acid).
# [2] = test system: piglets weaned at 28 days (control of E. coli infection); assay: Pig trial 1: weight gain and feed intake of weaned piglets; assay type: in vivo, pigs
# Description: A trial was conducted to determine the potential impact of the compositions of the invention for controlling E. coli infection and improving animal health.
# Piglets were weaned at 28 days of age with an average weight of 8.6±0.98 kg. At weaning (i.e. no longer suckling), litters were homogenized to a maximum of 14 pigs and assigned to either a control group (no additional feed component), to a first test group to which the composition of the invention was administered, and to a second test group to which zinc oxide was administered. Pigs were fed starter diets up until day 14 of the trial when the trial completed.
# Group weight and feed intake was recorded at day 0, 7 and 14 of the experiment.
# The composition of the invention comprised: 10 mg LPO and 8 mg KI and excipients. The composition was formulated as a powder. The composition was administered once daily with feed for 14 days. […] Zinc oxide was administered to the second test group at a concentration of 3000 ppm i.e. 3 g/kg of feed.
# [3] = test system: pigs at weaning (scour/diarrhea); assay: Pig trial 2: 240 weaned pigs, weight, health and cleanliness scores; assay type: in vivo
# Description: A further study involving 240 pigs was carried out with a higher dose of lactoperoxidase and potassium iodide. The pigs were weighed and allocated to the trail at weaning (approximately 28 days of age).
# The groups were homogenized with respect to group total weight and gender profile, and each group was divided into pens, with 5 pigs per pen. […] The pigs were weighed individually at the start of the study on day 7 and on day 14. Pigs were assessed each morning for general health, faeces was examined—to check for scour/diarrhea, and pigs per give a cleanliness score
compound,measurement,setting,value
OO [hydrogen peroxide],cytotoxic concentrations,mammalian cells,0.05 to 0.58 mmol/L
Lactoperoxidase,lactoperoxidase activity (units ABTS activity),[1],greater than 1000 U/mg
[O]=[Zn] [zinc oxide],Average body weight,[2]; Day 0 (baseline at weaning),8.5 kg
same,Average body weight,"[2]; Day 7, Test 1: 10 mg LPO and 8 mg KI daily, Test 2: zinc oxide 3000 ppm in feed",10.1 kg
same,Average body weight,"[2]; Day 14, Test 1: 10 mg LPO and 8 mg KI daily, Test 2: zinc oxide 3000 ppm in feed",13.7 kg
same,Average daily gain day 14,"[2]; piglets weaned at 28 days, Test 1: 10 mg LPO and 8 mg KI powder once daily with feed for 14 days, Test 2: zinc oxide 3000 ppm in feed",369 g/day
same,Average daily feed intake day 14,"[2]; piglets weaned at 28 days, Test 1: 10 mg LPO and 8 mg KI powder once daily, Test 2: zinc oxide 3000 ppm in feed",455 g/day
same,pig weight at the end of the 14 days,"[3]; PC: 3100 ppm ZnO diet, test: 20 mg LPO and 20 mg KI per day, NC diet approximately 0.8 kg less than PC",heaviest
same,cleanliness score,"[3]; score 1 (clean) to 4 (heavily contaminated with faecal material), 14 day study",lowest cleanliness score
